Measurements published in patent publication US9238631B2, “Radiolabeled amino acids for diagnostic imaging” (PIRAMAL IMAGING SA, priority 2011, dated 2016).

System: NCI-H460 tumor
Assay: In vivo biodistribution in NCI-H460 tumor bearing mice
Set-up: Summary: organs / Summary: Carcass / Summary: faeces: unit not given here
Details: for Summary: urine: in %; for Summary: Recovery: in % (unit assumed)
Outline: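 Biodistribution of 18F-labeled compounds was assessed in female NMRI (nu/nu) mice bearing NCI-H460 tumors, established by inoculating 5×10^6 cells 8 to 10 days beforehand. Each mouse received 185 kBq of the fluorinated tracer; at least n=3 animals per time point were sacrificed, organs excised, and radioactivity quantified with a γ-counter.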

## N[C@@H](CCC(Cc1ccc(OCC[18F])cc1)C(=O)O)C(=O)O (stereo partly drawn) [[^18F]-12] [(2S)-2-Amino-5-[4-(2-[^18F]fluoroethoxy)benzyl]hexanedioic acid]
Timepoint 1.0 h
  Summary: faeces: 0.01
  Summary: organs: 12.93
  Tail (% Dosis/g): 0.41 % Dosis/g
  Thyroid (% Dosis/g): 0.29 % Dosis/g
  Tumor (% Dosis/g): 6.47 % Dosis/g
  Tumor/Tissue: Adrenals: 23.74
  Tumor/Tissue: Blood: 33.90
  Tumor/Tissue: Bone: 41.80
  Tumor/Tissue: Brain: 142.1
  Tumor/Tissue: Fat: 302.3
  Tumor/Tissue: Gallbladder: 0.88
  Tumor/Tissue: Heart: 58.14
  Tumor/Tissue: Intestine: 7.45
  Tumor/Tissue: Kidney: 3.12
  Tumor/Tissue: Liver: 2.99
  Tumor/Tissue: Lung: 18.22
  Tumor/Tissue: Muscle: 103.4
  Tumor/Tissue: Ovaries: 8.99
  Tumor/Tissue: Pancreas: 1.82
  Tumor/Tissue: Skin: 10.56
  Tumor/Tissue: Spleen: 4.32
  Tumor/Tissue: Stomach: 6.88
  Tumor/Tissue: Thyroid: 22.49
  Tumor/Tissue: Uterus: 8.25
  Uterus (% Dosis/g): 0.97 % Dosis/g
  Summary: urine: 82.05
  Summary: Recovery: 98.57
Timepoint 2.0 h
  Adrenals (% Dosis/g): 0.27 % Dosis/g
  Blood (% Dosis/g): 0.08 % Dosis/g
  Bone (% Dosis/g): 0.14 % Dosis/g
  Brain (% Dosis/g): 0.05 % Dosis/g
  Fat (% Dosis/g): 0.02 % Dosis/g
  Gallbladder (% Dosis/g): 8.93 % Dosis/g
  Heart (% Dosis/g): 0.06 % Dosis/g
  Intestine (% Dosis/g): 1.12 % Dosis/g
  Liver (% Dosis/g): 0.87 % Dosis/g
  Muscle (% Dosis/g): 0.05 % Dosis/g
  Ovaries (% Dosis/g): 0.54 % Dosis/g
  Pancreas (% Dosis/g): 1.48 % Dosis/g
  Skin (% Dosis/g): 0.43 % Dosis/g
  Spleen (% Dosis/g): 1.29 % Dosis/g
  Stomach (% Dosis/g): 0.46 % Dosis/g
  Summary: Carcass: 5.26
  Summary: faeces: 1.74
  Summary: organs: 8.77
  Tail (% Dosis/g): 1.44 % Dosis/g
  Thyroid (% Dosis/g): 0.26 % Dosis/g
  Tumor (% Dosis/g): 7.21 % Dosis/g
  Tumor/Tissue: Adrenals: 27.83
  Tumor/Tissue: Blood: 86.51
  Tumor/Tissue: Bone: 57.86
  Tumor/Tissue: Brain: 161.0
  Tumor/Tissue: Fat: 396.0
  Tumor/Tissue: Gallbladder: 0.81
  Tumor/Tissue: Heart: 126.5
  Tumor/Tissue: Intestine: 6.58
  Tumor/Tissue: Kidney: 11.24
  Tumor/Tissue: Liver: 8.46
  Tumor/Tissue: Lung: 29.67
  Tumor/Tissue: Muscle: 169.9
  Tumor/Tissue: Ovaries: 13.81
  Tumor/Tissue: Pancreas: 4.90
  Tumor/Tissue: Skin: 39.91
  Tumor/Tissue: Spleen: 5.82
  Tumor/Tissue: Stomach: 16.25
  Tumor/Tissue: Thyroid: 35.78
  Tumor/Tissue: Uterus: 15.37
  Uterus (% Dosis/g): 0.50 % Dosis/g
  Summary: urine: 83.35
  Summary: Recovery: 99.00
Timepoint 4.0 h
  Adrenals (% Dosis/g): 0.16 % Dosis/g
  Blood (% Dosis/g): 0.04 % Dosis/g
  Bone (% Dosis/g): 0.06 % Dosis/g
  Brain (% Dosis/g): 0.02 % Dosis/g
  Fat (% Dosis/g): 0.01 % Dosis/g
  Gallbladder (% Dosis/g): 6.45 % Dosis/g
  Heart (% Dosis/g): 0.04 % Dosis/g
  Intestine (% Dosis/g): 0.93 % Dosis/g
  Muscle (% Dosis/g): 0.03 % Dosis/g
  Ovaries (% Dosis/g): 0.24 % Dosis/g
  Pancreas (% Dosis/g): 0.27 % Dosis/g
  Skin (% Dosis/g): 0.37 % Dosis/g
  Spleen (% Dosis/g): 0.59 % Dosis/g
  Stomach (% Dosis/g): 0.21 % Dosis/g
  Summary: Carcass: 1.09
  Summary: faeces: 0.25
  Summary: organs: 6.12
  Tail (% Dosis/g): 0.55 % Dosis/g
  Thyroid (% Dosis/g): 0.08 % Dosis/g
  Tumor (% Dosis/g): 5.17 % Dosis/g
  Tumor/Tissue: Adrenals: 41.62
  Tumor/Tissue: Blood: 148.1
  Tumor/Tissue: Bone: 91.73
  Tumor/Tissue: Brain: 237.6
  Tumor/Tissue: Fat: 2513
  Tumor/Tissue: Gallbladder: 1.11
  Tumor/Tissue: Heart: 153.2
  Tumor/Tissue: Intestine: 5.57
  Tumor/Tissue: Kidney: 28.19
  Tumor/Tissue: Liver: 18.60
  Tumor/Tissue: Lung: 227.5
  Tumor/Tissue: Muscle: 185.7
  Tumor/Tissue: Ovaries: 21.39
  Tumor/Tissue: Pancreas: 19.41
  Tumor/Tissue: Skin: 16.05
  Tumor/Tissue: Spleen: 8.58
  Tumor/Tissue: Stomach: 24.28
  Tumor/Tissue: Thyroid: 64.78
  Tumor/Tissue: Uterus: 23.55
  Uterus (% Dosis/g): 0.21 % Dosis/g
  Summary: urine: 92.66
  Summary: Recovery: 100.1
